Data taken from patent publication US12077503B2, “Substituted cyclic amides and their use as herbicides” (FMC CORPORATION, priority 2015, dated 2024).
Like-named read-outs stand apart in the source and are kept apart here.

What was measured:
Assay type in all cases: in vivo
[1] = system: barnyardgrass (Echinochloa crus-galli); assay: Test B flooded paddy test; conditions: Echinochloa crus-galli, 250 g ai/ha, Flood, read-out: Barnyardgrass plant response rating
Summary of the method: (§1)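 Plants at 2-leaf stage flooded to 3 cm above soil, with compounds applied directly to paddy water and that depth maintained. Plants kept in greenhouse 13–15 d. Visual rating versus controls on a 0 (no effect) to 100 (complete control) scale.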

[2] = system: ducksalad (Heteranthera limosa); assay: Test B flooded paddy test; conditions: Heteranthera limosa, 250 g ai/ha, Flood, read-out: Ducksalad plant response rating
Summary of the method: as §1

[3] = system: sedge, umbrella (small-flower umbrella sedge, Cyperus difformis); assay: Test B flooded paddy test; conditions: Cyperus difformis, 250 g ai/ha, Flood, read-out: Sedge, Umbrella plant response rating
Summary of the method: as §1

rice (Oryra sativa) = assay: Test B flooded paddy test; conditions: Oryza sativa, 250 g ai/ha, Flood, read-out: Rice plant response rating
Summary of the method: as §1

corn (Zea mays) = assay: Test A postemergence; conditions: Zea mays, post-emergence, 240 h; for Corn plant response rating (crop injury, 0 = no effect, 100 = complete kill) at 125 g/ha: postemergence, visual injury after approximately 10 d
Summary of the method: (§2)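 Seeds sprayed preemergence with a directed soil spray, or plants at 2 to 10 cm height and one- to two-leaf stage sprayed postemergence, with test chemicals in a non-phytotoxic solvent mixture containing surfactant, in loam soil–sand blend. Injury rated visually against untreated controls after about 10 d in greenhouse, 0 (no effect) to 100 (complete control).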

[4] = system: giant foxtail (Setaria faberii); assay: Test A postemergence; conditions: Setaria faberi, post-emergence, 240 h; for pest or weed control at 125 g/ha: 125 g ai/ha
Summary of the method: as §2

Kochia (Kochia scoparia) = assay: Test A postemergence; conditions: Bassia scoparia, post-emergence, 240 h; for pest or weed control at 125 g/ha: 125 g ai/ha
Summary of the method: as §2

[5] = system: ryegrass, Italian (Italian ryegrass, Lolium multiflorum); assay: Test A postemergence; conditions: Lolium multiflorum, post-emergence, 240 h; for pest or weed control at 125 g/ha: 125 g ai/ha
Summary of the method: as §2

[6] = system: Galium (catchweed bedstraw, Galium aparine); assay: Test A postemergence; conditions: Galium, post-emergence, 240 h; for pest or weed control at 125 g/ha: 125 g ai/ha
Summary of the method: as §2

[7] = system: pigweed (Amaranthus retroflexus); assay: Test A postemergence; conditions: Amaranthus retroflexus, post-emergence, 240 h; for pest or weed control at 125 g/ha: 125 g ai/ha
Summary of the method: as §2

[8] = system: ragweed (common ragweed, Ambrosia elatior); assay: Test A postemergence; conditions: Ambrosia artemisiifolia, post-emergence, 240 h; for pest or weed control at 125 g/ha: 125 g ai/ha
Summary of the method: as §2

[9] = system: wheat (Triticum aestivum); assay: Test A postemergence; conditions: Triticum aestivum, post-emergence, 240 h, Postemergence
Summary of the method: as §2

[10] = system: blackgrass (Alopecurus myosuroides); assay: Test A postemergence; conditions: Alopecurus myosuroides, post-emergence, 240 h; for pest or weed control at 125 g/ha: 125 g ai/ha
Summary of the method: as §2

[11] = system: barnyardgrass (Echinochloa crus-galli); assay: Test A postemergence; conditions: Echinochloa crus-galli, post-emergence, 240 h, 125 g ai/ha, postemergence; visual injury after approximately 10 d; 0 to 100 scale (0 no effect, 100 complete control); read-out: Plant response rating, Barnyardgrass
Summary of the method: as §2

[12] = 0 to 100 scale where 0 is no effect and 100 is complete control
[13] = scale of 0 to 100 where 0 is no effect and 100 is complete control
[14] = 125 g ai/ha, 0 to 100 scale (0 no effect, 100 complete control)
[15] = postemergence, visual injury after approximately 10 d, 0 to 100 scale (0 no effect, 100 complete control), read-out: Plant response rating, Foxtail, Giant
[16] = postemergence, visual injury after approximately 10 d, 0 to 100 scale (0 no effect, 100 complete control), read-out: Plant response rating, Kochia
[17] = postemergence, visual injury after approximately 10 d, 0 to 100 scale (0 no effect, 100 complete control), read-out: Plant response rating, Ryegrass, Italian
[18] = postemergence, visual injury after approximately 10 d, 0 to 100 scale (0 no effect, 100 complete control), read-out: Plant response rating, Galium
[19] = postemergence, visual injury after approximately 10 d, 0 to 100 scale (0 no effect, 100 complete control), read-out: Plant response rating, Pigweed
[20] = postemergence, visual injury after approximately 10 d, 0 to 100 scale (0 no effect, 100 complete control), read-out: Plant response rating, Ragweed
[21] = postemergence, visual injury after approximately 10 d, 0 to 100 scale (0 no effect, 100 complete control), read-out: Plant response rating, Blackgrass

## Cc1cc([C@H]2CN(C)C(=O)[C@@H]2C(=O)Nc2cccc(F)c2C)ccc1F [Compound 1311]
[1]; [12]
  pest or weed control at 250 g/ha: 80%
[2]; [12]
  pest or weed control at 250 g/ha: 100%
[3]; [12]
  pest or weed control at 250 g/ha: 0%
Rice (Oryra sativa); [12]
  pest or weed control at 250 g/ha: 0%
Corn (Zea mays); 125 g ai/ha, Postemergence, visual rating about 10 d after treatment, read-out: Corn plant response rating (0 to 100 scale)
  plant injury at 125 g/ha: 70%
Corn (Zea mays); Postemergence, 500 g ai/ha, visual injury, 0 to 100 scale (0 no effect, 100 complete control), approx. 10 d
  Corn plant response rating (crop injury, 0 = no effect, 100 = complete kill) at 500 g/ha: 80%
[4]; Postemergence, visual rating about 10 d after treatment, read-out: Foxtail, Giant plant response rating (0 to 100 scale)
  pest or weed control at 125 g/ha: 90%
[4]; Postemergence, 500 g ai/ha, visual injury, 0 to 100 scale (0 no effect, 100 complete control), approx. 10 d, read-out: Plant response rating, Foxtail, Giant
  pest or weed control at 500 g/ha: 90%
Kochia (Kochia scoparia); Postemergence, visual rating about 10 d after treatment, read-out: Kochia plant response rating (0 to 100 scale)
  pest or weed control at 125 g/ha: 30%
Kochia (Kochia scoparia); Postemergence, 500 g ai/ha, visual injury, 0 to 100 scale (0 no effect, 100 complete control), approx. 10 d, read-out: Plant response rating, Kochia
  pest or weed control at 500 g/ha: 50%
[5]; Postemergence, visual rating about 10 d after treatment, read-out: Ryegrass, Italian plant response rating (0 to 100 scale)
  pest or weed control at 125 g/ha: 40%
[5]; Postemergence, 500 g ai/ha, visual injury, 0 to 100 scale (0 no effect, 100 complete control), approx. 10 d, read-out: Plant response rating, Ryegrass, Italian
  pest or weed control at 500 g/ha: 80%
[6]; Postemergence, visual rating about 10 d after treatment, read-out: Galium plant response rating (0 to 100 scale)
  pest or weed control at 125 g/ha: 50%
[6]; Postemergence, 500 g ai/ha, visual injury, 0 to 100 scale (0 no effect, 100 complete control), approx. 10 d, read-out: Plant response rating, Galium
  pest or weed control at 500 g/ha: 60%
[7]; Postemergence, visual rating about 10 d after treatment, read-out: Pigweed plant response rating (0 to 100 scale)
  pest or weed control at 125 g/ha: 0%
[7]; Postemergence, 500 g ai/ha, visual injury, 0 to 100 scale (0 no effect, 100 complete control), approx. 10 d, read-out: Plant response rating, Pigweed
  pest or weed control at 500 g/ha: 20%
[8]; Postemergence, visual rating about 10 d after treatment, read-out: Ragweed plant response rating (0 to 100 scale)
  pest or weed control at 125 g/ha: 0%
[8]; Postemergence, 500 g ai/ha, visual injury, 0 to 100 scale (0 no effect, 100 complete control), approx. 10 d, read-out: Plant response rating, Ragweed
  pest or weed control at 500 g/ha: 30%
[9]; 125 g ai/ha, visual rating about 10 d after treatment, read-out: Wheat plant response rating (0 to 100 scale)
  plant injury at 125 g/ha: 60%
[9]; 500 g ai/ha, visual injury, 0 to 100 scale (0 no effect, 100 complete control), approx. 10 d, read-out: Plant response rating, Wheat
  plant injury at 500 g/ha: 80%
[10]; Postemergence, visual rating about 10 d after treatment, read-out: Blackgrass plant response rating (0 to 100 scale)
  pest or weed control at 125 g/ha: 60%
[10]; Postemergence, 500 g ai/ha, visual injury, 0 to 100 scale (0 no effect, 100 complete control), approx. 10 d, read-out: Plant response rating, Blackgrass
  pest or weed control at 500 g/ha: 60%

## Cc1cc([C@H]2CNC(=O)[C@@H]2C(=O)Nc2ccccc2F)ccc1Cl [Compound 789]
[1]; [13]
  pest or weed control at 250 g/ha: 20%
[2]; [13]
  pest or weed control at 250 g/ha: 100%
[3]; [13]
  pest or weed control at 250 g/ha: 0%
Rice (Oryra sativa); [13]
  pest or weed control at 250 g/ha: 0%
Corn (Zea mays); [14]
  Corn plant response rating (crop injury, 0 = no effect, 100 = complete kill) at 125 g/ha: 20%
[4]; [15]
  pest or weed control at 125 g/ha: 30%
Kochia (Kochia scoparia); [16]
  pest or weed control at 125 g/ha: 0%
[5]; [17]
  pest or weed control at 125 g/ha: 0%
[6]; [18]
  pest or weed control at 125 g/ha: 40%
[11]
  pest or weed control at 125 g/ha: 80%
[7]; [19]
  pest or weed control at 125 g/ha: 0%
[8]; [20]
  pest or weed control at 125 g/ha: 0%
[10]; [21]
  pest or weed control at 125 g/ha: 40%

## Cc1cc([C@H]2CNC(=O)[C@@H]2C(=O)Nc2cccc(F)c2F)ccc1Cl [Compound 790]
[1]; [13]
  pest or weed control at 250 g/ha: 40%
[2]; [13]
  pest or weed control at 250 g/ha: 100%
[3]; [13]
  pest or weed control at 250 g/ha: 0%
Rice (Oryra sativa); [13]
  pest or weed control at 250 g/ha: 0%
Corn (Zea mays); [14]
  Corn plant response rating (crop injury, 0 = no effect, 100 = complete kill) at 125 g/ha: 30%
[4]; [15]
  pest or weed control at 125 g/ha: 50%
Kochia (Kochia scoparia); [16]
  pest or weed control at 125 g/ha: 40%
[5]; [17]
  pest or weed control at 125 g/ha: 0%
[6]; [18]
  pest or weed control at 125 g/ha: 50%
[11]
  pest or weed control at 125 g/ha: 80%
[7]; [19]
  pest or weed control at 125 g/ha: 20%
[8]; [20]
  pest or weed control at 125 g/ha: 30%
[10]; [21]
  pest or weed control at 125 g/ha: 40%
